Reference: PubChem BioAssay (NCI)
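In this assay, cells in 96-well plates receive the compound at five concentrations for 48 hours. Endpoints are linearly interpolated between the surrounding concentrations. TGI denotes the concentration required for complete inhibition of growth.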

Key:
Test in all cases: inhibition of tumour cell growth, NCI panel, 48 h
[1] = tested on: NCI-H460 lung
[2] = tested on: SN12C renal
[3] = tested on: HS 578T breast
[4] = tested on: MCF7 breast
[5] = tested on: HCT-116 colon
[6] = tested on: NCI-H23 lung
[7] = tested on: T-47D breast
[8] = tested on: MDA-N
[9] = tested on: TK-10 renal
[10] = tested on: MDA-MB-231 breast

SMILES | TGI [1] | TGI [2] | TGI [3] | TGI [4] | TGI [5] | TGI [6] | TGI [7] | TGI [8] | TGI [9] | TGI [10]
NCCCCNCCCN1CCOC1=O | > 100 µM | > 100 µM | > 100 µM | > 100 µM | > 100 µM | > 100 µM | > 100 µM | > 100 µM | > 100 µM | > 100 µM
O=C1C=CC(=O)c2c(O)c(N3CCC[C@@H]3CO)c(Cl)c(O)c21 | 3.52 µM | 3.25 µM | 4.03 µM | 2.7 µM | 2.91 µM | 3.55 µM | 4.27 µM | 3.15 µM | 3.3 µM | 4.03 µM
CN1c2ccccc2C2=C(c3ccccc3)CC[C@@H](C(=O)N3C4CC5CC[C@@]4(CS3(=O)=O)C5(C)C)[C@@H]21 (stereo not given in full) | > 100 µM | > 100 µM | > 100 µM | > 100 µM | > 100 µM | > 100 µM | > 100 µM | > 100 µM | > 100 µM | > 100 µM
CC1=C(C(=O)OCCO[N+](=O)[O-])C(c2ccccc2[N+](=O)[O-])C(C(=O)OC(C)C)=C(C)N1 (stereo not given) | 34.2 µM | 34.9 µM | 41.2 µM | 44.9 µM | 29.8 µM | 48.5 µM | 46.8 µM | 31.1 µM | 58.4 µM | 29 µM
N#CCCN(CCC#N)c1ccc(C(N=Nc2ccccc2)=Nc2ccc(F)cc2)cc1 | > 100 µM | > 100 µM | > 100 µM | > 100 µM | > 100 µM | > 100 µM | > 100 µM | > 100 µM | > 100 µM | > 100 µM
Clc1ccc(/C(=C/c2ccccc2)Cn2ccnc2)cc1 | > 100 µM | > 100 µM | > 100 µM | > 100 µM | > 100 µM | > 100 µM | > 100 µM | 46.6 µM | > 100 µM | > 100 µM
CC(C)=CCc1c(O)cc2oc(-c3ccc(O)cc3O)cc(=O)c2c1O | > 100 µM | > 69.1 µM | > 94 µM | > 65.6 µM | 61.1 µM | 58.2 µM | 49.8 µM | 72.3 µM | 69.7 µM | 67.2 µM
CCC1([N+](=O)[O-])CN(N=O)C1 | > 100 µM | > 100 µM | > 100 µM | > 100 µM | > 100 µM | > 100 µM | > 100 µM | > 100 µM | > 100 µM | > 100 µM
Cc1nc2c(=O)n(-c3ccccc3)c(=O)n(-c3ccccc3)c2o1 | > 100 µM | > 100 µM | > 100 µM | > 100 µM | > 100 µM | > 100 µM | > 100 µM | > 100 µM | > 100 µM | > 100 µM
Cc1cc(-c2ccccc2)nc2oc(=O)n(C)c12 | > 100 µM | > 100 µM | > 100 µM | > 100 µM | > 100 µM | > 100 µM | > 100 µM | > 100 µM | > 100 µM | > 100 µM
COc1ccc(-c2cc3cc(Cl)cc(Cl)c3oc2=O)cc1OC | > 100 µM | > 100 µM | 76.1 µM | > 100 µM | > 100 µM | > 100 µM | > 100 µM | > 100 µM | > 100 µM | > 100 µM
Cc1c(C(=O)NNc2ccccc2)n2c(=S)[nH]nc2c2ccccc12 | > 100 µM | > 100 µM | > 100 µM | > 100 µM | > 100 µM | > 100 µM | > 100 µM | > 100 µM | > 100 µM | > 100 µM
Cc1ccc(C)c(COCCOCn2cc(N3CCOCC3)c(=O)[nH]c2=O)c1 | > 100 µM | > 100 µM | > 100 µM | > 100 µM | > 100 µM | > 100 µM | > 100 µM | > 100 µM | > 100 µM | > 100 µM
O=c1c2cc([N+](=O)[O-])ccc2oc2nc3n(c(=O)c12)CCCS3 | > 100 µM | > 100 µM | > 100 µM | > 100 µM | > 100 µM | > 100 µM | > 100 µM | > 100 µM | > 100 µM | > 100 µM
